Results: patent US7192906B2, “Substituted pyrazole derivatives, production process thereof, and herbicide compositions containing the derivatives” (SDS Biotech K.K., priority 2001, dated 2007)

Experiments:
Format in all cases: in vivo
Setaria viridis [1] = assay: Test Example 1 upland field foliage treatment; conditions: Table 4, upland field foliage treatment, index 0-5
Method in brief: (§1)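 Post-emergence foliar spray of water-diluted wettable powder at 1 kg active ingredient per hectare, applied 14 days after sowing in upland soil. Weed control or crop phytotoxicity rated 21 days later on a 0–5 scale (5: ≥90%, 0: <10%).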

Digitaria adscendens [2] = assay: Test Example 1 upland field foliage treatment; conditions: Table 4, upland field foliage treatment, index 0-5
Method in brief: as §1

Chenopodium album [3] = assay: Test Example 1 upland field foliage treatment; conditions: Table 4, upland field foliage treatment, index 0-5
Method in brief: as §1

Stellaria media [4] = assay: Test Example 1 upland field foliage treatment; conditions: Table 4, upland field foliage treatment, index 0-5
Method in brief: as §1

Echinochloa crusgalli = assay: Test Example 3 paddy field treatment; conditions: active ingredient 1 kg per hectare, index 0-5
Method in brief: (§2)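 Weed seeds sown in puddled paddy soil under 4 cm water, with two-leaf Koshihikari rice transplanted; 10 days later a wettable powder was applied to the water surface at 1 kg active ingredient/ha. Scored 21 days after application on a 0–5 scale (0 = <10%, 5 = ≥90% herbicidal effect or phytotoxicity).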

Monochoria vaginalis = assay: Test Example 3 paddy field treatment; conditions: active ingredient 1 kg per hectare, index 0-5
Method in brief: as §2

Ammannia multiflora = assay: Test Example 3 paddy field treatment; conditions: active ingredient 1 kg per hectare, index 0-5
Method in brief: as §2

Scirpus juncoides = assay: Test Example 3 paddy field treatment; conditions: active ingredient 1 kg per hectare, index 0-5
Method in brief: as §2

[5] = tested on: wheat (Triticum aestivum); assay: Test Example 1 upland field foliage treatment, crop phytotoxicity; conditions: Table 4, upland field foliage treatment, index 0-5
Method in brief: as §1

soybean (Glycine max) [6] = assay: as above; conditions: Table 4, upland field foliage treatment, index 0-5
Method in brief: as §1

[7] = tested on: wheat (Triticum aestivum); assay: Test Example 2 upland soil treatment, crop phytotoxicity; conditions: Table 5, upland soil treatment, index 0-5
Method in brief: (§3)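 Pre-emergence soil application the day after sowing, active ingredient at 1 kg per hectare as diluted wettable powder, seeds covered with about 1 cm soil. Assessed 21 days after application on a 0–5 scale (5 = ≥90% herbicidal effect or phytotoxicity; 0 = <10%).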

soybean (Glycine max) [8] = assay: as above; conditions: Table 5, upland soil treatment, index 0-5
Method in brief: as §3

Setaria viridis [9] = assay: Test Example 2 upland soil treatment; conditions: Table 5, upland soil treatment, index 0-5
Method in brief: as §3

Digitaria adscendens [10] = assay: Test Example 2 upland soil treatment; conditions: Table 5, upland soil treatment, index 0-5
Method in brief: as §3

Chenopodium album [11] = assay: Test Example 2 upland soil treatment; conditions: Table 5, upland soil treatment, index 0-5
Method in brief: as §3

Stellaria media [12] = assay: Test Example 2 upland soil treatment; conditions: Table 5, upland soil treatment, index 0-5
Method in brief: as §3

Rice (Oryza sativa) = assay: Test Example 3 paddy field treatment, crop phytotoxicity; conditions: active ingredient 1 kg per hectare, index 0-5; for Herbicidal activity OS (phytotoxicity to rice): paddy field treatment, transplanted rice Koshihikari, wettable powder, 21st day after the dropping
Method in brief: as §2

[13] = paddy field treatment, wettable powder, 21st day after the dropping
[14] = Table 6, paddy field treatment, 21st day after dropping

| SMILES | Herbicidal activity SV: Setaria viridis (Setaria viridis [1]) | Herbicidal activity DA: Digitaria adscendens (Digitaria adscendens [2]) | Herbicidal activity CA: Chenopodium album (Chenopodium album [3]) | Herbicidal activity SM: Stellaria media (Stellaria media [4]) | Herbicidal activity EC (Echinochloa crusgalli; [13]) | Herbicidal activity MV (Monochoria vaginalis; [13]) | Herbicidal activity AM (Ammannia multiflora; [13]) | Herbicidal activity SJ (Scirpus juncoides; [13]) | Herbicidal activity (phytotoxicity) TA: Wheat (Triticum aestivum) [5] | Herbicidal activity (phytotoxicity) GM: Soybean (Glycine max) (soybean (Glycine max) [6]) | Herbicidal activity (phytotoxicity) TA: Wheat (Triticum aestivum) [7] | Herbicidal activity (phytotoxicity) GM: Soybean (Glycine max) (soybean (Glycine max) [8]) | Herbicidal activity SV: Setaria viridis (Setaria viridis [9]) | Herbicidal activity DA: Digitaria adscendens (Digitaria adscendens [10]) | Herbicidal activity CA: Chenopodium album (Chenopodium album [11]) | Herbicidal activity SM: Stellaria media (Stellaria media [12]) | Herbicidal activity OS (phytotoxicity to rice) (Rice (Oryza sativa)) | also measured |
| --- | --- | --- | --- | --- | --- | --- | --- | --- | --- | --- | --- | --- | --- | --- | --- | --- | --- | --- |
| CON=C(Cn1cc(C)c(-c2ccccc2)n1)C(=O)NC1CCCC1 [Compound 23] | 3 (herbicidal effect of not less than 50% and less than 70%, or phytotoxicity of 50% or more and less than 70%) | 3 (herbicidal effect of not less than 50% and less than 70%, or phytotoxicity of 50% or more and less than 70%) | 4 (herbicidal effect of not less than 70% and less than 90%, or phytotoxicity of 70% or more and less than 90%) | 4 (herbicidal effect of not less than 70% and less than 90%, or phytotoxicity of 70% or more and less than 90%) | 4 (herbicidal effect of not less than 70% and less than 90%, or phytotoxicity of 70% or more and less than 90%) | 5 (herbicidal effect of not less than 90%, or phytotoxicity of 90% or more) | 5 (herbicidal effect of not less than 90%, or phytotoxicity of 90% or more) | 4 (herbicidal effect of not less than 70% and less than 90%, or phytotoxicity of 70% or more and less than 90%) | 0 (herbicidal effect of not less than 0% and less than 10%, or phytotoxicity of 0% or more and less than 10%) | 0 (herbicidal effect of not less than 0% and less than 10%, or phytotoxicity of 0% or more and less than 10%) | 0 (herbicidal effect of not less than 0% and less than 10%, or phytotoxicity of 0% or more and less than 10%) | 0 (herbicidal effect of not less than 0% and less than 10%, or phytotoxicity of 0% or more and less than 10%) | 4 (herbicidal effect of not less than 70% and less than 90%, or phytotoxicity of 70% or more and less than 90%) | 4 (herbicidal effect of not less than 70% and less than 90%, or phytotoxicity of 70% or more and less than 90%) | 5 (herbicidal effect of not less than 90%, or phytotoxicity of 90% or more) | 4 (herbicidal effect of not less than 70% and less than 90%, or phytotoxicity of 70% or more and less than 90%) | 0 (herbicidal effect of not less than 0% and less than 10%, or phytotoxicity of 0% or more and less than 10%) |  |
| CON=C(Cn1cc(C)c(-c2ccccc2)n1)C(=O)NC(C)C [Compound 20] | 2 (herbicidal effect of not less than 30% and less than 50%, or phytotoxicity of 30% or more and less than 50%) | 3 (herbicidal effect of not less than 50% and less than 70%, or phytotoxicity of 50% or more and less than 70%) | 5 (herbicidal effect of not less than 90%, or phytotoxicity of 90% or more) | 5 (herbicidal effect of not less than 90%, or phytotoxicity of 90% or more) | 5 (herbicidal effect of not less than 90%, or phytotoxicity of 90% or more) | 5 (herbicidal effect of not less than 90%, or phytotoxicity of 90% or more) | 4 (herbicidal effect of not less than 70% and less than 90%, or phytotoxicity of 70% or more and less than 90%) | 4 (herbicidal effect of not less than 70% and less than 90%, or phytotoxicity of 70% or more and less than 90%) | 0 (herbicidal effect of not less than 0% and less than 10%, or phytotoxicity of 0% or more and less than 10%) | 0 (herbicidal effect of not less than 0% and less than 10%, or phytotoxicity of 0% or more and less than 10%) | 0 (herbicidal effect of not less than 0% and less than 10%, or phytotoxicity of 0% or more and less than 10%) | 0 (herbicidal effect of not less than 0% and less than 10%, or phytotoxicity of 0% or more and less than 10%) | 3 (herbicidal effect of not less than 50% and less than 70%, or phytotoxicity of 50% or more and less than 70%) | 4 (herbicidal effect of not less than 70% and less than 90%, or phytotoxicity of 70% or more and less than 90%) | 3 (herbicidal effect of not less than 50% and less than 70%, or phytotoxicity of 50% or more and less than 70%) | 4 (herbicidal effect of not less than 70% and less than 90%, or phytotoxicity of 70% or more and less than 90%) | 0 (herbicidal effect of not less than 0% and less than 10%, or phytotoxicity of 0% or more and less than 10%) |  |
| CON=C(Cn1cc(C)c(-c2ccccc2)n1)C(=O)N1CCCC1 [Compound 118] | 3 (herbicidal effect of not less than 50% and less than 70%, or phytotoxicity of 50% or more and less than 70%) | 4 (herbicidal effect of not less than 70% and less than 90%, or phytotoxicity of 70% or more and less than 90%) | 4 (herbicidal effect of not less than 70% and less than 90%, or phytotoxicity of 70% or more and less than 90%) | 5 (herbicidal effect of not less than 90%, or phytotoxicity of 90% or more) |  |  |  |  | 0 (herbicidal effect of not less than 0% and less than 10%, or phytotoxicity of 0% or more and less than 10%) | 0 (herbicidal effect of not less than 0% and less than 10%, or phytotoxicity of 0% or more and less than 10%) | 0 (herbicidal effect of not less than 0% and less than 10%, or phytotoxicity of 0% or more and less than 10%) | 0 (herbicidal effect of not less than 0% and less than 10%, or phytotoxicity of 0% or more and less than 10%) | 3 (herbicidal effect of not less than 50% and less than 70%, or phytotoxicity of 50% or more and less than 70%) | 3 (herbicidal effect of not less than 50% and less than 70%, or phytotoxicity of 50% or more and less than 70%) | 4 (herbicidal effect of not less than 70% and less than 90%, or phytotoxicity of 70% or more and less than 90%) | 4 (herbicidal effect of not less than 70% and less than 90%, or phytotoxicity of 70% or more and less than 90%) |  | Herbicidal activity EC (Echinochloa crusgalli; [14]): 3 (herbicidal effect of not less than 50% and less than 70%, or phytotoxicity of 50% or more and less than 70%); Herbicidal activity MV (Monochoria vaginalis; [14]): 4 (herbicidal effect of not less than 70% and less than 90%, or phytotoxicity of 70% or more and less than 90%); Herbicidal activity AM (Ammannia multiflora; [14]): 4 (herbicidal effect of not less than 70% and less than 90%, or phytotoxicity of 70% or more and less than 90%); Herbicidal activity SJ (Scirpus juncoides; [14]): 4 (herbicidal effect of not less than 70% and less than 90%, or phytotoxicity of 70% or more and less than 90%); Herbicidal activity (phytotoxicity) OS (Rice (Oryza sativa); Table 6, paddy field treatment, transplanted rice, 21st day after dropping): 0 (herbicidal effect of not less than 0% and less than 10%, or phytotoxicity of 0% or more and less than 10%) |
